Consider 42 molecules from US20080255127A1, “Pesticide Formulations with a Crystallization Risk, and a Method for Their Preparation” (priority 2005, published 2008).

The first series in a line: Crystallization test of EW formulations Dn (25-μm metal filter). It is filed as physicochemical. Also on record: key to Crystallization: −: A minus sign indicates the absence of crystals; +: a plus sign indicates their presence. The settings on record: 5.0% pesticide in formulation Dn. As for the experimental part: In the crystallization test, an emulsion consisting of 2% of the formulation in 98 ml of water was kept at 1° C. for 24 h and was then passed through a 25-μm metal filter. A minus sign indicates the absence of crystals, while a plus sign indicates their presence. […] The worst emulsion, which however was still acceptable, scored +, a good emulsion scored ++ and the best ones scored +++. Both the phase separation and the time of its occurrence were observed when evaluating the emulsion. […] A single + sign means that some oil did separate out after 2 hours.
Regarding `CC1CCCCC1NC(=O)Nc1ccccc1` (centres unmarked) [siduron], the “Crystallization problems (in words)” value is “had crystallization problems”. As for `CCOC(=O)CSc1nc(C(C)(C)C)nn1C(=O)N(C)C` [triazamate], the “Crystallization problems (in words)” value is listed as “had crystallization problems”.

The same series, now with this note: 5.0% pesticide in formulation Dn; 2% of the formulation in 98 ml of water, 1° C. for 24 h, 25-μm metal filter.
On to `O=C(O)COc1ccc(Cl)cc1Cl` [2,4-D], for which the Crystallization entry is on record as “−”.

With `Cc1cc(Cl)ccc1OCC(=O)O` [MCPA], the Crystallization result was “−”.

On to `CCNc1nc(Cl)nc(NC(C)C)n1` [atrazine], for which the Crystallization entry is “−”. `COP(=S)(OC)SCn1nnc2ccccc2c1=O` [azinphos-methyl]: the Crystallization entry is on record as “−”. As for `O=c1oc2ccccc2c(O)c1C(CC(O)c1ccc(-c2ccc(Br)cc2)cc1)c1ccccc1` (centres unmarked) [bromadiolone], the Crystallization result is on record as “−”. Consider `Clc1ccc(C2(Cn3cncn3)CC(Br)CO2)c(Cl)c1` (centres unmarked) [bromuconazole], for which the Crystallization entry was “−”. In the case of `C=CCOC(=O)C(C)(C)OC(=O)c1cc(-n2c(=O)cc(C(F)(F)F)n(C)c2=O)ccc1Cl` [butafenacil], the Crystallization entry is reported as “−”. As for `Cc1ccc(NC(=O)N(C)C)cc1Cl` [chlorotoluron], the Crystallization entry is given as “−”.

Consider `O=c1oc2ccccc2c(O)c1C1CCCc2ccccc21` (centres unmarked) [coumatetralyl], for which the Crystallization result is “+”.

Take `O=C(O)C1(C(=O)Nc2ccc(Cl)cc2Cl)CC1` [cyclanilide]: the Crystallization entry was “−”. As to `CC(C1CC1)C(O)(Cn1cncn1)c1ccc(Cl)cc1` (centres unmarked) [cyproconazole], the Crystallization entry was “−”. On to `CC1COC(Cn2cncn2)(c2ccc(Oc3ccc(Cl)cc3)cc2Cl)O1` (centres unmarked) [difenconazole], for which the Crystallization entry is “−”. Same read-out and setting: with `COc1ccc(C(=CC(=O)N2CCOCC2)c2ccc(Cl)cc2)cc1OC` [dimethomorph] the entry was “−”. Consider `CN(C)C(=O)Nc1ccc(Cl)c(Cl)c1` [diuron], for which the Crystallization result is given as “−”. `CCOc1ccccc1OS(=O)(=O)NC(=O)Nc1nc(OC)cc(OC)n1` [ethoxysulfuron]: the Crystallization result was “−”.

As for `CC1(C(=O)Nc2ccc(O)c(Cl)c2Cl)CCCCC1` [fenhexamid], the Crystallization result is recorded as “−”. Consider `C/C(=N/Nc1nc(C)cc(C)n1)c1ccccc1C` [ferimzone], for which the Crystallization result was “−”. For `C[Si](Cn1cncn1)(c1ccc(F)cc1)c1ccc(F)cc1` [flusilazole], the Crystallization result was “−”. For the molecule `CS(=O)(=O)NC(=O)c1cc(Oc2ccc(C(F)(F)F)cc2Cl)ccc1[N+](=O)[O-]` [fomesafen], the Crystallization entry is given as “−”.

As to `c1coc(-c2nc3ccccc3[nH]2)c1` [fuberidazole], the Crystallization result is listed as “−”.

Take `COC(=O)C(C)N(C(=O)c1ccco1)c1c(C)cccc1C` (centres unmarked) [furalaxyl]: the Crystallization result is listed as “−”. In the case of `CC(C)(C)N(NC(=O)c1ccc(Cl)cc1)C(=O)c1ccccc1` [halofenozide], the Crystallization entry is on record as “−”. `C=CCOC(Cn1ccnc1)c1ccc(Cl)cc1Cl` (centres unmarked) [imazalil]: the Crystallization result is on record as “−”. On to `CCC1(CC2(c3cccc(Cl)c3)CO2)C(=O)c2ccccc2C1=O` (centres unmarked) [indanofan], for which the Crystallization result is recorded as “−”.

For `Cc1ccc(C(C)NC(=O)[C@@H](NC(=O)OC(C)C)C(C)C)cc1` (some centres unmarked) [iprovalicarb], the Crystallization result was “−”. Consider `CC(C)c1ccc(NC(=O)N(C)C)cc1` [isoproturon], for which the Crystallization result is recorded as “−”. Consider `CON(C)C(=O)Nc1ccc(Cl)c(Cl)c1` [linuron], for which the Crystallization entry is “−”. Take `CCOC(=O)C1=NN(c2ccc(Cl)cc2Cl)C(C)(C(=O)OCC)C1` (centres unmarked) [mefenpyr-diethyl]: the Crystallization entry is reported as “−”. Same read-out and setting: with `CC1(C)CCC(Cc2ccc(Cl)cc2)C1(O)Cn1cncn1` (centres unmarked) [metconazole] the entry was “−”; with `CNC(=O)Oc1cc(C)c(SC)c(C)c1` [methiocarb], “−”.

As for `OC(c1ccc(F)cc1)(c1cncnc1)c1ccccc1Cl` (centres unmarked) [nuarimol], the Crystallization result is “−”. Same read-out and setting: the same measure for `CC(C)(C)C(O)C(Cc1ccc(Cl)cc1)n1cncn1` (centres unmarked) [paclobutrazole]: “−”; for `CCC(=O)Nc1ccc(Cl)c(Cl)c1` [propanil]: “−”. `OC(Cc1ccccc1Cl)(Cn1nc[nH]c1=S)C1(Cl)CC1` (centres unmarked) [prothioconazole]: the Crystallization result was “−”. As to `CCOP(=S)(OCC)Oc1ccc(=O)n(-c2ccccc2)n1` [pyridaphenthion], the Crystallization entry was “−”.

In the case of `CC1CCCCC1NC(=O)Nc1ccccc1` (centres unmarked) [siduron], the Crystallization entry is on record as “+”.

In the case of `CCNc1nc(NCC)nc(SC)n1` [simetryn], the Crystallization entry is “−”. Regarding `CC(C)(C)C(O)(CCc1ccc(Cl)cc1)Cn1cncn1` (centres unmarked) [tebuconazole], the Crystallization entry is recorded as “−”. Take `CC(C)(C)C(=O)C(Oc1ccc(Cl)cc1)n1cncn1` (centres unmarked) [triadimefon]: the Crystallization result is reported as “−”.

As to `CC(C)(C)C(O)C(Oc1ccc(Cl)cc1)n1cncn1` (centres unmarked) [triadimenol], the Crystallization result is “−”. `CCOC(=O)CSc1nc(C(C)(C)C)nn1C(=O)N(C)C` [triazamate]: the Crystallization result was “+”.

The nature of another series: Risk of crystallization of pesticides in ECs and EWs. It counts as physicochemical. The settings on record: conventional recipes; EW with less than 10% of water. The source says: This is what happened in the case of both EP655197 and EP453899, where the compositions for which the disclosed anticrystallization agents (N,N-dialkylamides) cover the whole range of triazoles with a fungicidal action, without giving examples of all of the compositions in which it is appropriate to use N,N-dimethylalkylamides. […] Propioconazole is an example.
The inventors have established that it is not the similarly of the chemical structure that puts the pesticide “at risk” of crystallization in ECs and EWs, but instead it is much more sensible to evaluate certain experimental parameters (or parameters that are calculated semi-empirically) in order to predict the risk of crystallization. In numerous tests, the inventors have found some pesticides with a risk of crystallization and others without. This risk refers in concrete terms to what happens when 5 ml of the EC or EW is diluted with 95 ml of water and kept in a refrigerator (at 1° C.), after which the emulsion is passed through a 5-μm filter 7 days later.
As to Propioconazole, the “Crystallization problems in an emulsifiable concentrate (EC) or emulsion in water (EW)” value is reported as “free of crystallization problems”.
